Measurements reported in paper PMC8129498, “Synthesis, Antitumor and Antiviral In Vitro Activities of New Benzotriazole-Dicarboxamide Derivatives” (Frontiers in Chemistry, 2021).

Experiments:
[1] = system: SK-MES 1 cells; test: Apoptosis assay (Annexin V/PI, flow cytometry); format: cell-based, human; details: 96 h
Procedure: 3b compound was selected as lead and employed in our assay. Human lung cancer cells (SK-MES 1) were seeded at the density of 8 × 10^5 cells/ml in 6-well plates (Corning, United States) with a complete medium (described in cell culture section). After overnight incubations, the cells were treated with or without different concentrations of 3b for 96 h. Cells were then labeled with Annexin V and PI as previously described ([Ibba et al., 2021]). Stained cells were then analyzed by flow cytometry, measuring the fluorescence emission at 530 and 620 nm using 488 nm excitation laser (MoFloAstrios EQ, Beckman Coulter). Cell apoptosis was analyzed using Software Summit Version 6.3.1.1, Beckman Coulter.

[2] = system: CCRF-SB; test: Antiproliferative assay (MTT), CCRF-SB; format: cell-based; details: Homo sapiens, 96 h, read-out: CC50 CCRF-SB
Procedure: (§1) Cell lines were purchased from American Type Culture Collection (ATCC). The absence of mycoplasma contamination was checked periodically by the Hoechst staining method. Exponentially growing leukemia and lymphoma cells were seeded at 1 × 10^5 cells/ml in 96 well plates in RPMI-1640 medium, supplemented with 10% fetal bovine serum, 100 units/ml penicillin G, and 100 μg/ml streptomycin, and incubated at 37°C in a humidified, 5% CO2 atmosphere in the absence or presence of serial dilutions of test compounds. Cell viability was determined after 96 h at 37°C by the 3-(4,5-dimethylthiazol-2-yl)-2,5-diphenyl-tetrazolium bromide (MTT) method. Activity against solid-tumor derived cells was evaluated in exponentially growing cultures seeded at 5 × 10^4 cells/ml and allowed to adhere for 16 h to culture plates before the addition of the drugs. Cell viability was determined by the MTT method 4 days later. Vincristine and doxorubicin were used as reference drugs.
(§2) The extent of cell growth/viability and viral multiplication, at each drug concentration tested, were expressed as percentage of untreated controls. Concentrations resulting in 50% inhibition (CC50 or EC50) were determined by linear regression analysis.

[3] = system: panel of 60 human tumor cell lines; test: NCI60 Human Tumor Cell Lines Screen, whole panel; format: cell-based; details: 10 μM, of the 60 cell lines
Procedure: (§3) The in vitro anti-cancer screening was performed through the NCI60 Human Tumor Cell Lines Screen, provided by the Developmental Therapeutics Program of the National Cancer Institute (NCI, Bethesda, United States). A single dose of 10 µM of each compound is tested in the whole NCI60 cell panel. More details about the NCI60 screen methods are reported on the NCI website (https://dtp.cancer.gov ).

[4] = Antiproliferative assay (MTT), CRL 7065 control fibroblasts; format: cell-based, human; details: MTT; human foreskin fibroblasts, non-tumor control; read-out: CC50 CRL 7065
Procedure: as §1, §2

[5] = system: CCRF-CEM; test: Antiproliferative assay (MTT), CCRF-CEM; format: cell-based, human; details: Homo sapiens, CCRF-CEM, 96 h, read-out: CC50 CCRF-CEM
Procedure: as §1, §2

[6] = system: breast cancer cell lines; test: NCI60 Human Tumor Cell Lines Screen, breast cancer lines; format: cell-based; details: most of the breast cancer cell lines, read-out: Percentage of Growth Inhibition (PGI)
Procedure: as §3

[7] = system: prostate cancer cell lines; test: NCI60 Human Tumor Cell Lines Screen, prostate cancer lines; format: cell-based; details: the two prostate cancer cell lines
Procedure: as §3

[8] = system: SK-MES1; test: Antiproliferative assay (MTT), SK-MES1; format: cell-based; details: Homo sapiens, SK-MES-1, 96 h, read-out: CC50 SK-MES1
Procedure: as §1, §2

[9] = system: WIL-2NS; test: Antiproliferative assay (MTT), WIL-2NS; format: cell-based; details: Homo sapiens, WIL2-NS, 96 h, read-out: CC50 WIL-2NS
Procedure: as §1, §2

[10] = system: DU145; test: Antiproliferative assay (MTT), DU145; format: cell-based; details: Homo sapiens, DU-145, 96 h, read-out: CC50 DU145
Procedure: as §1, §2

[11] = system: HeLa; test: Antiproliferative assay (MTT), HeLa; format: cell-based; details: Homo sapiens, 96 h, read-out: CC50 HeLa
Procedure: as §1, §2

[12] = system: SK-MEL28; test: Antiproliferative assay (MTT), SK-MEL28; format: cell-based; details: Homo sapiens, SK-MEL-28, 96 h, read-out: CC50 SK-MEL28
Procedure: as §1, §2

[13] = system: OVCAR-4; test: NCI60 Human Tumor Cell Lines Screen, OVCAR-4; format: cell-based; details: OVCAR-4 ovarian cancer cell line, read-out: Percentage of Growth Inhibition (PGI)
Procedure: as §3

O=C(CCCC(=O)Nc1ccc(-n2nnc3cc(Cl)c(Cl)cc32)cc1)Nc1ccc(-n2nnc3cc(Cl)c(Cl)cc32)cc1 [Compound 3b, N ^1,N ^5-Bis(4-(5,6-Dichloro-1H-Benzo[d][1,2,3]Triazol-1-yl)phenyl)glutaramide]
% Early apoptotic cells ([1]; 7μM): 21.4 ± 12.32%
% Late apoptotic cells ([1]; 7μM): 10.5 ± 0.67%
% Live cells ([1]; 7μM): 63.8 ± 1.1%
% Necrotic cells ([1]; 7μM): 4.3 ± 0.74%
% Early apoptotic cells ([1]; 20μM): 28.5 ± 4.63%
% Late apoptotic cells ([1]; 20μM): 11.1 ± 2.08%
% Live cells ([1]; 20μM): 54.8 ±4.9%
% Necrotic cells ([1]; 20μM): 5.6 ±1.74%
apoptotic cells ([1]; 7 µm): 32%
apoptotic cells ([1]; 20 µm): 40%
CC50 [2]: 0.35 ± 0.07 µM
number of cell lines with PGI higher than 50% [3]: 29
CC50 at 96 h [4]: 0.75 ± 0.05 µM
CC50 [5]: 0.5 ± 0.1 µM
inhibition at 10 µM [6]: 48 to 81%
Percentage of Growth Inhibition (PGI) ([7]; 10 μM): 66%
inhibition at 10 µM ([7]; Homo sapiens, read-out: Percentage of Growth Inhibition (PGI)): 80%
CC50 [8]: 6.8 ± 3.5 µM
CC50 [9]: > 100 µM
CC50 [10]: 5.1 µM
CC50 [11]: 7.1 ± 2.7 µM
CC50 [12]: 6.2 ± 1.3 µM
inhibition at 10 µM [13]: 106%
